Values joined by “and” are separate entries in the source; they are usually repeats but may differ in a detail not shown here. Equal entries are not always repeated. Toxic doses and inconclusive results are not listed. The calls were made as follows: active = survival T/C of 150% or more; inactive = T/C below 125% in these data. Non-standard residues stand in square brackets, D forms with d. Residues, ends and D or L forms follow the SMILES beside them. *: point of attachment. Nle = CCCC[CH](N)C(=O)O; Cbz = O=C(OCc1ccccc1)*; OBn = c1ccc(CO*)cc1
Tested on: BDF1 mice, P388 leukemia ip, median survival T/C
Test: NCI In Vivo Anticancer Drug Screen. Data for tumor model P388 Leukemia (intraperitoneal) in B6D2F1 (BDF1) mice
Conditions: endpoint: median survival time, higher = longer survival
Summary of the method: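 T/C = treated-group survival ÷ vehicle-control survival; tumour transplanted into mice before dosing.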

[1] = dose: 50.0 mg/kg/injection, schedule: Q01DX009 (ip), vehicle: saline with Tween-80
[2] = dose: 100.0 mg/kg/injection, schedule: Q01DX009 (ip), vehicle: saline with Tween-80
[3] = dose: 200.0 mg/kg/injection, schedule: Q01DX009 (ip), vehicle: saline with Tween-80
[4] = dose: 100.0 mg/kg/injection, schedule: Q04DX003 (ip), vehicle: saline with Tween-80
[5] = dose: 200.0 mg/kg/injection, schedule: Q04DX003 (ip), vehicle: saline with Tween-80
[6] = dose: 400.0 mg/kg/injection, schedule: Q04DX003 (ip), vehicle: saline with Tween-80
[7] = dose: 100.0 mg/kg/injection, schedule: Q04DX003 (ip), vehicle: saline
[8] = dose: 200.0 mg/kg/injection, schedule: Q04DX003 (ip), vehicle: saline
[9] = dose: 400.0 mg/kg/injection, schedule: Q04DX003 (ip), vehicle: saline
[10] = dose: 25.0 mg/kg/injection, schedule: Q04DX003 (ip), vehicle: saline with Tween-80
[11] = dose: 50.0 mg/kg/injection, schedule: Q04DX003 (ip), vehicle: saline with Tween-80
[12] = dose: 50.0 mg/kg/injection, schedule: Q01DX005 (ip), vehicle: saline with Tween-80
[13] = dose: 100.0 mg/kg/injection, schedule: Q01DX005 (ip), vehicle: saline with Tween-80
[14] = dose: 200.0 mg/kg/injection, schedule: Q01DX005 (ip), vehicle: saline with Tween-80
[15] = dose: 100.0 mg/kg/injection, schedule: Q04DX003 (ip), vehicle: Klucel (hydroxypropylcellulose) (HPC)
[16] = dose: 200.0 mg/kg/injection, schedule: Q04DX003 (ip), vehicle: Klucel (hydroxypropylcellulose) (HPC)
[17] = dose: 400.0 mg/kg/injection, schedule: Q04DX003 (ip), vehicle: Klucel (hydroxypropylcellulose) (HPC)

Measured: T/C

c1c2c(cc3c1OCO3)CC1CCCN1CC2 (configuration not stated)
inactive: dose: 0.5 mg/kg/injection, schedule: Q01DX009 (ip), vehicle: saline with Tween-80 108 % of control | dose: 1.0 mg/kg/injection, schedule: Q01DX009 (ip), vehicle: saline with Tween-80 100 % of control | dose: 4.0 mg/kg/injection, schedule: Q01DX009 (ip), vehicle: saline with Tween-80 108 % of control | dose: 8.0 mg/kg/injection, schedule: Q01DX009 (ip), vehicle: saline with Tween-80 108 % of control

Oc1ccccc1-c1nnc2n1N=C(c1ccc(-c3ccccc3)cc1)CS2
inactive: [1] 98 % of control | [2] 98 % of control | [3] 92 % of control

CCCC1(C)NC(=O)NC1=O (configuration not stated)
inactive: [4] 104 % of control | [5] 113 % of control | [6] 90 % of control

O=C(NCc1cnccn1)Nc1ccccc1
inactive: dose: 25.0 mg/kg/injection, schedule: Q04DX003 (ip), vehicle: saline 104 % of control | dose: 50.0 mg/kg/injection, schedule: Q04DX003 (ip), vehicle: saline 103 % of control | [7] 87 % of control | [8] 100 % of control | [9] 100 % of control

CN(C)P(=O)(Oc1ccccc1)N(C)C
inactive: dose: 25.0 mg/kg/injection, schedule: Q01DX009 (ip), vehicle: saline with Tween-80 94 % of control | [1] 120 % of control | [2] 102 % of control and 103 % of control | [3] 100 % of control

N/C(=N\OS(=O)(=O)c1ccccc1)Oc1ccccc1
inactive: [4] 97 % of control | [5] 95 % of control | [6] 99 % of control

NC(=S)N/N=C/c1ncccc1F
inactive: [10] 110 % of control | [11] 119 % of control

OCCN1CCN(CC/C=C2/c3ccccc3Sc3ccc(C(F)(F)F)cc32)CC1
inactive: dose: 5.0 mg/kg/injection, schedule: Q01DX009 (ip), vehicle: saline 101 % of control | dose: 10.0 mg/kg/injection, schedule: Q01DX009 (ip), vehicle: saline 101 % of control | dose: 80.0 mg/kg/injection, schedule: Q04DX003 (ip), vehicle: saline 97 % of control

COc1cc2c(cc1OC)-c1c3c(cc4c1[C@@H](C2)N(C)CC4)OCO3
inactive: dose: 12.5 mg/kg/injection, schedule: Q01DX009 (ip), vehicle: acid diluted with saline 100 % of control | dose: 25.0 mg/kg/injection, schedule: Q01DX009 (ip), vehicle: acid diluted with saline 100 % of control | dose: 50.0 mg/kg/injection, schedule: Q01DX009 (ip), vehicle: acid diluted with saline 105 % of control

COc1cc(C(C)O)cc(OC)c1OC (configuration not stated)
inactive: [2] 92 % of control | [4] 95 % of control | [3] 92 % of control | [5] 104 % of control | [6] 95 % of control

O=C(O)C1C2CC1C(Cl)C2Cl (configuration not stated)
inactive: [1] 106 % of control | [2] 106 % of control | [3] 106 % of control

CCCCC(NC(=O)C1CCCN1C(=O)OCc1ccccc1)C(=O)OCc1ccccc1 (stereo not drawn) (Cbz-Pro-[Nle]-OBn; configuration not given here)
inactive: [12] 88 % of control | [13] 101 % of control | [14] 97 % of control

CC1(C)N=C(N)N=C(N)N1c1cccc(CCCCc2cccc(S(=O)(=O)F)c2)c1
inactive: dose: 1.5 mg/kg/injection, schedule: Q04DX003 (ip), vehicle: saline 118 % of control | dose: 4.0 mg/kg/injection, schedule: Q04DX003 (ip), vehicle: saline with Tween-80 109 % of control | dose: 6.0 mg/kg/injection, schedule: Q04DX003 (ip), vehicle: saline with Tween-80 113 % of control | dose: 6.25 mg/kg/injection, schedule: Q01DX009 (ip), vehicle: saline 108 % of control | dose: 9.0 mg/kg/injection, schedule: Q04DX003 (ip), vehicle: saline with Tween-80 118 % of control | dose: 12.5 mg/kg/injection, schedule: Q01DX009 (ip), vehicle: saline 116 % of control | dose: 25.0 mg/kg/injection, schedule: Q01DX009 (ip), vehicle: saline 116 % of control

O=C(c1ccco1)C1Cc2ccccc2C1=O (configuration not stated)
inactive: [2] 116 % of control | [4] 91 % of control | [3] 104 % of control | [5] 104 % of control | dose: 400.0 mg/kg/injection, schedule: Q01DX009 (ip), vehicle: saline with Tween-80 100 % of control | [6] 108 % of control

O=C1c2c(Cl)cccc2C(c2ccccc2)c2cccc(Cl)c21
inactive: [1] 95 % of control | [2] 104 % of control | [3] 97 % of control

CN1CCC(S)(S)CC1
inactive: dose: 12.5 mg/kg/injection, schedule: Q04DX003 (ip), vehicle: saline with Tween-80 100 % of control | [10] 100 % of control | [11] 109 % of control

C=CCN1C(=O)CN=C1SC(=O)Nc1ccc(Cl)cc1
inactive: [12] 97 % of control | [13] 97 % of control

O=[N+]([O-])c1ccc(N/N=C(\CCl)c2ccccc2)c([N+](=O)[O-])c1
inactive: dose: 25.0 mg/kg/injection, schedule: Q01DX001 (ip), vehicle: saline with Tween-80 109 % of control | dose: 50.0 mg/kg/injection, schedule: Q01DX001 (ip), vehicle: saline with Tween-80 104 % of control | dose: 100.0 mg/kg/injection, schedule: Q01DX001 (ip), vehicle: saline with Tween-80 104 % of control

CCN(CC)CCCC(C)NS(=O)(=O)c1cccc2c(N(C)C)cccc12 (configuration not stated)
inactive: dose: 6.25 mg/kg/injection, schedule: Q04DX003 (ip), vehicle: water 97 % of control | dose: 12.5 mg/kg/injection, schedule: Q04DX003 (ip), vehicle: water 108 % of control | dose: 25.0 mg/kg/injection, schedule: Q04DX003 (ip), vehicle: water 118 % of control | dose: 50.0 mg/kg/injection, schedule: Q04DX003 (ip), vehicle: water 118 % of control | dose: 100.0 mg/kg/injection, schedule: Q04DX003 (ip), vehicle: water 115 % of control

CCCCCCCCCCCC[N+]1(CCCCCCCCCCCC)CCCC(C)C1 (configuration not stated)
inactive: dose: 0.37 mg/kg/injection, schedule: Q01DX009 (ip), vehicle: Klucel (hydroxypropylcellulose) (HPC) 108 % of control

O=C(NCCBr)Nc1ccccc1C(F)(F)F
inactive: [15] 95 % of control | [16] 109 % of control | [17] 109 % of control

O=C(Cn1cc(F)c(=O)[nH]c1=O)c1ccco1
inactive: dose: 100.0 mg/kg/injection, schedule: Q01DX009 (ip), vehicle: saline 100 % of control | [7] 111 % of control | dose: 200.0 mg/kg/injection, schedule: Q01DX009 (ip), vehicle: saline 95 % of control | [8] 105 % of control and 122 % of control | dose: 400.0 mg/kg/injection, schedule: Q01DX009 (ip), vehicle: saline 100 % of control | [9] 86 % of control | dose: 600.0 mg/kg/injection, schedule: Q04DX003 (ip), vehicle: saline 95 % of control

O=C(OC1C=CCC1)c1ccc([N+](=O)[O-])cc1 (configuration not stated)
inactive: [15] 100 % of control | [16] 100 % of control | [17] 100 % of control

Nc1ccc(N2N=C(N3CCCC3)CC2=O)cc1
inactive: [12] 89 % of control | [13] 89 % of control | [14] 103 % of control
